Measurements: patent US12648927B2, “Compositions and methods of enhancing immunotherapies” (Cha Therapeutics, Inc., priority 2018, dated 2026)

What was measured:
[1] = test system: PDL-1; test: PDL-1 gene expression by qRT-PCR, human MDA-MB-231 xenograft tumors; assay type: in vivo; conditions: human tumors in immune compromised mice, 4-5 mice each group
Source text: Data represented as mean±SEM.

[2] = test system: HLA-DRB5 (MHC II); test: IFN stimulated gene expression by qRT-PCR (HLA-DRB5), TNBC human xenograft tumors; assay type: in vivo; conditions: single components vs combination
Protocol: It was tested in 6 treated and 5 untreated tumors. *P<0.05, **P<0.01, ***P<0.005, ****P<0.001. Data represented as mean±SEM.

| Structure (SMILES) | relative gene expression of PDL-1, increase [1] [fold] | HLA-DRB5 (MHC II) gene expression [2] |
| --- | --- | --- |
| Nc1ncn([C@H]2C[C@H](O)[C@@H](CO)O2)c(=O)n1 [DAC, decitabine] | 2 | no significant effect |
| O=C(O[C@@H]1Cc2c(O)cc(O)cc2O[C@@H]1c1cc(O)c(O)c(O)c1)c1cc(O)c(O)c(O)c1 [EGCG, epigallocatechin gallate] | – | no significant effect |
